The text below walks through data of ChEMBL document CHEMBL2016468, “Development of rationally designed DNA N6 adenine methyltransferase inhibitors” (Bioorg Med Chem Lett, 2012).

This test is described as follows: Inhibition of Yersinia pestis Dam using oligonucleotide 1 as substrate after 2000 to 3000 sec by micro plate reader based real-time break-light assay.

On to `Nc1ncnc2c1ncn2[C@@H]1O[C@H](CNCC[C@H](N)C(=O)O)[C@@H](O)[C@H]1O`, for which inhibition was half-maximal at 84 µM (IC50).

As for `Nc1ncnc2c1ncn2[C@@H]1O[C@H](CN(CC[C@H](N)C(=O)O)Cc2ccccn2)[C@@H](O)[C@H]1O`, the IC50 (in general, the concentration that inhibits the measured activity by half) is more than 250 µM.

Turning to `Nc1ncnc2c1ncn2[C@@H]1O[C@H](CN(CCCc2ccccn2)CC[C@H](N)C(=O)O)[C@@H](O)[C@H]1O`, the IC50 was more than 250 µM.

For `Nc1ncnc2c1ncn2[C@@H]1O[C@H](CN(CCc2c[nH]c3ccccc23)CC[C@H](N)C(=O)O)[C@@H](O)[C@H]1O`, the IC50 stood at 12.3 µM.

The compound `Nc1ncnc2c1ncn2[C@@H]1O[C@H](CN(CCCc2c[nH]c3ccccc23)CC[C@H](N)C(=O)O)[C@@H](O)[C@H]1O` registered an IC50 of 13.1 µM.

Consider `Nc1ncnc2c1ncn2[C@@H]1O[C@H](CN(CCc2coc3ccccc23)CC[C@H](N)C(=O)O)[C@@H](O)[C@H]1O`, for which the IC50 was found to be 39.2 µM.

Regarding `Nc1ncnc2c1ncn2[C@@H]1O[C@H](CN(CCc2csc3ccccc23)CC[C@H](N)C(=O)O)[C@@H](O)[C@H]1O`, the IC50 was found to be 28.9 µM.

`Nc1ncnc2c1ncn2[C@@H]1O[C@H](CN(CCc2cccc3[nH]ccc23)CC[C@H](N)C(=O)O)[C@@H](O)[C@H]1O`: the half-maximal inhibitory concentration (IC50) came out at 31.3 µM.

`Nc1ncnc2c1ncn2[C@@H]1O[C@H](CSCC[C@H](N)C(=O)O)[C@@H](O)[C@H]1O` [S-ADENOSYLHOMOCYSTEINE]: the 50% inhibitory concentration (IC50) worked out at 11.9 µM.
